In ChEMBL document CHEMBL1153596, “Design, synthesis, and characterization of 6beta-naltrexol analogs, and their selectivity for in vitro opioid receptor subtypes” (Bioorg Med Chem Lett, 2009) one finds Ki and Ratio Ki data, which are given here for 4 compounds.

For one experiment, the target named is Mu-type opioid receptor (Homo sapiens, UniProt P35372). In words: Displacement of [3H]DAMGO from human mu opioid receptor expressed in CHO cells by liquid scintillation counting. The class given is cell-based. (Displacement assays read how much labelled ligand stays bound in the presence of the test substance.)
Mu-type opioid receptor, sequence (P35372 whole entry): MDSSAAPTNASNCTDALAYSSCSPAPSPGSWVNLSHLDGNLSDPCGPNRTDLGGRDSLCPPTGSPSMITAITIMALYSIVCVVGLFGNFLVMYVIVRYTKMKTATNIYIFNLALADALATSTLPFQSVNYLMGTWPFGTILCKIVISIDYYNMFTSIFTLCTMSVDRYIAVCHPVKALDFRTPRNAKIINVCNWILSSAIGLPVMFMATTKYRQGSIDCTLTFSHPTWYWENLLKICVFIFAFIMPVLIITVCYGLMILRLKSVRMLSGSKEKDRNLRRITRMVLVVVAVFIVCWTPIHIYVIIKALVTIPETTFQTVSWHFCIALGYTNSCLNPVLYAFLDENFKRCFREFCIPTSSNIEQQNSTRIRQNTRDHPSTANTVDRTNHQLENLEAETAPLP
Experiment [1] is filed under the species Homo sapiens. In words: Selectivity ratio of Ki for human delta opioid receptor to Ki for human mu opioid receptor.
Experiment [2] deals with Kappa-type opioid receptor (Homo sapiens, UniProt P41145). Kind of experiment: Displacement of [3H]U69,593 from human kappa opioid receptor expressed in CHO cells by liquid scintillation counting. The format is cell-based.
Kappa-type opioid receptor, sequence (P41145 whole entry): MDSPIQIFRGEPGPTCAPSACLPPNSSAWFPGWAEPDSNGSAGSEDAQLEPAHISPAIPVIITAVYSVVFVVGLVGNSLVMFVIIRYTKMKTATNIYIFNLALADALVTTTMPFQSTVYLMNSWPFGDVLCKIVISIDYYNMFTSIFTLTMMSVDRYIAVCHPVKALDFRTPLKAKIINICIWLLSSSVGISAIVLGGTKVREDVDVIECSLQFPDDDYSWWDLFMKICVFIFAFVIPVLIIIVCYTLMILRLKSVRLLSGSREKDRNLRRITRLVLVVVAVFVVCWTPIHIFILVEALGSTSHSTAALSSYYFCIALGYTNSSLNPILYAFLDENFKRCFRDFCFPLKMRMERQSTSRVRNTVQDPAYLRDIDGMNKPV
Experiment [3] is filed under the species Homo sapiens. In words: Selectivity ratio of Ki for human kappa opioid receptor to Ki for human mu opioid receptor.
In experiment [4] the target is Delta-type opioid receptor (Homo sapiens, UniProt P41143). In words: Displacement of [3H]DADLE from human delta opioid receptor expressed in CHO cells by liquid scintillation counting. The class given is cell-based.
Delta-type opioid receptor, sequence (P41143 whole entry): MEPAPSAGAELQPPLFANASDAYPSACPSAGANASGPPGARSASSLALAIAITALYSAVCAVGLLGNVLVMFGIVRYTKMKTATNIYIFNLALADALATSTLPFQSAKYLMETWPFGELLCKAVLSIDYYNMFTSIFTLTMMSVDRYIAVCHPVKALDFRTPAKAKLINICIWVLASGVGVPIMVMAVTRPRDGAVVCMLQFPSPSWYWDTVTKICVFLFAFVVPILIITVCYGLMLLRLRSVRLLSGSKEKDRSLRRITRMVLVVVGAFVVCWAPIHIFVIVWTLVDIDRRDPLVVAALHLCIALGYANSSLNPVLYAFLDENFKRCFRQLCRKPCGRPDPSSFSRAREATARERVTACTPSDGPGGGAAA

By Ki is commonly meant the dissociation constant of the complex between target and ligand, obtained from inhibition or displacement. A high value points to a looser hold on the target.

With `O=C(O[C@@H]1CC[C@@]2(O)[C@H]3Cc4ccc(O)c5c4[C@@]2(CCN3CC2CC2)[C@H]1O5)N(c1ccccc1)c1ccccc1`, the Ki at Mu-type opioid receptor is 0.56 nM; in experiment [2] it was 14.7 nM; in experiment [4], 74.6 nM. Besides, the Ratio Ki in the experiment filed under Homo sapiens [1] came out at 133; in the experiment listed under Homo sapiens [3], 26.3.
`CN(C)C(=O)O[C@@H]1CC[C@@]2(O)[C@H]3Cc4ccc(O)c5c4[C@@]2(CCN3CC2CC2)[C@H]1O5`: the Ki on Mu-type opioid receptor worked out at 1.85 nM; in experiment [2] it was 28.2 nM; in experiment [4], 334 nM. The values for the Ratio Ki in the experiment filed under Homo sapiens [1] and in the experiment filed under Homo sapiens [3] were 180 and 15.2, respectively.
The corresponding values for `Cc1ccc(S(=O)(=O)O[C@@H]2CC[C@@]3(O)[C@H]4Cc5ccc(O)c6c5[C@@]3(CCN4CC3CC3)[C@H]2O6)cc1` are 0.79 nM, 1.66 nM, 5.16 nM, 6.5 and 2.1.
`CS(=O)(=O)O[C@@H]1CC[C@@]2(O)[C@H]3Cc4ccc(O)c5c4[C@@]2(CCN3CC2CC2)[C@H]1O5`: the Ki came to 1.11 nM at Mu-type opioid receptor, 6.75 nM in experiment [2] and 93.1 nM in experiment [4]. The Ratio Ki in the experiment listed under Homo sapiens [1] was determined as 83.8; in the experiment listed under Homo sapiens [3], 6.1.
